# ChEMBL document CHEMBL4715726, “Identification, characterization, kinetics, and molecular docking of flavonoid constituents from Archidendron clypearia (Jack.) Nielsen leaves and twigs” (Bioorg Med Chem, 2016)
# What was measured:
# [1] = biological target: T1, Bifunctional epoxide hydrolase 2 (Homo sapiens) (UniProt P34913); assay: Inhibition of sEH (unknown origin) assessed as reduction in 6-methoxy-2-naphthaldehyde formation at 100 uM using PHOME as substrate measured after 40 mins by fluorescence photometry analysis relative to control
# T1 sequence (whole entry): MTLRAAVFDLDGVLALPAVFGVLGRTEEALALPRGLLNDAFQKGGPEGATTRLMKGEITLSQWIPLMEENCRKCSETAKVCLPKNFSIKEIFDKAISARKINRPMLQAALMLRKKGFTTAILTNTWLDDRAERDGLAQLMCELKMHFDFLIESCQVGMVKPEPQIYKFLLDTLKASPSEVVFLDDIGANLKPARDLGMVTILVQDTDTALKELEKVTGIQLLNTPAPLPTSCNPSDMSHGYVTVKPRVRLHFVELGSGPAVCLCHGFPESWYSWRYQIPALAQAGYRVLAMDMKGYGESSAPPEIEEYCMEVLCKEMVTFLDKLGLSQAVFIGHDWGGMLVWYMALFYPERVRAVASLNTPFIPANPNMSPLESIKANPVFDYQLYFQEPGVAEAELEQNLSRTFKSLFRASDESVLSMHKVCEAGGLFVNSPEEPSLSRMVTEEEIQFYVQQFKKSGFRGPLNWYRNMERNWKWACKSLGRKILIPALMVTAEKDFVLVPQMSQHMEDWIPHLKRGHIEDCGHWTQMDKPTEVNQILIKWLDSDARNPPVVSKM
# [2] = biological target: T2, Bifunctional epoxide hydrolase 2 (Homo sapiens, UniProt P34913); assay: Inhibition of sEH (unknown origin) assessed as reduction in 6-methoxy-2-naphthaldehyde formation using PHOME as substrate measured after 40 mins by fluorescence photometry analysis
# T2 sequence (P34913 whole entry): T1 sequence (whole entry)
# [3] = biological target: T2, Bifunctional epoxide hydrolase 2; assay: Mixed type inhibition of sEH (unknown origin) using varying levels of PHOME as substrate by Dixon plot analysis
# [4] = biological target: T1, Bifunctional epoxide hydrolase 2 (Homo sapiens); conditions: dose 25.0 nM, time 40.0 min
# [5] = biological target: T2, Bifunctional epoxide hydrolase 2; assay: Competitive inhibition of sEH (unknown origin) using varying levels of PHOME as substrate by Dixon plot analysis
# [6] = biological target: T2, Bifunctional epoxide hydrolase 2; assay: Non competitive inhibition of sEH (unknown origin) using varying levels of PHOME as substrate by Dixon plot analysis
Structure (SMILES),inhibition [1] [%],IC50 [2] [µM],other results
COc1cc(O)c(C(=O)/C=C/c2ccc(O)c(OC)c2)c(O[C@@H]2O[C@H](CO)[C@@H](O)[C@H](O)[C@H]2O)c1,56.3,,
CCCCOC(=O)CCCCCCCCCCCNC(=O)NC12CC3CC(CC(C3)C1)C2,,,inhibition [4]: 58.9%
COc1cc(O)c2c(=O)cc(-c3ccc(O[C@@H]4O[C@H](CO)[C@@H](O)[C@H](O)[C@H]4O)c(OC)c3)oc2c1,98.5,17.5,Ki [3]: 37.1 µM
C[C@@H]1O[C@@H](Oc2c(-c3ccc(O)c(O)c3)oc3cc(O)cc(O)c3c2=O)[C@H](O)[C@H](O)[C@H]1O [QUERCITRIN],78.5,11.8,Ki [6]: 39.6 µM
COc1cc([C@@H](O)CC(=O)c2c(O)cc(O[C@@H]3O[C@H](CO)[C@@H](O)[C@H](O)[C@H]3O[C@@H]3OC[C@](O)(CO)[C@H]3O)cc2O)ccc1O,50.9,,
O=C(Oc1c(-c2ccc(O)c(O)c2)oc2cc(O)cc(O)c2c1=O)c1cc(O)c(O)c(O)c1,91.2,11.5,Ki [6]: 21.5 µM
COc1cc(O)c2c(c1)O[C@H](c1cc(O)c(O[C@@H]3O[C@H](CO)[C@@H](O)[C@H](O)[C@H]3O[C@@H]3OC[C@](O)(CO)[C@H]3O)c(OC)c1)CC2=O,53.5,,
COc1cc(O)c2c(=O)c(O)c(-c3ccc(O[C@@H]4O[C@H](CO)[C@@H](O)[C@H](O)[C@H]4O[C@@H]4OC[C@](O)(CO)[C@H]4O)c(OC)c3)oc2c1,64.1,,
COc1cc([C@@H](O)CC(=O)c2c(O)cc(O[C@@H]3O[C@H](CO)[C@@H](O)[C@H](O)[C@H]3O)cc2O)ccc1O,33.9,,

# More lines, main results first:
inhibition [1] [%],IC50 [2] [µM],Structure (SMILES),other results
90.8,10,O=C(Oc1cc(O)c2c(c1)O[C@H](c1cc(O)c(O)c(O)c1)CC2)c1cc(O)c(O)c(O)c1,Ki [3]: 45.5 µM
95.8,19.8,COc1cc(O)c2c(=O)c(O[C@@H]3O[C@H](CO)[C@@H](O)[C@H](O)[C@H]3O)c(-c3ccc(O[C@@H]4O[C@H](CO)[C@@H](O)[C@H](O)[C@H]4O)c(OC)c3)oc2c1,Ki [5]: 24.6 µM
86.5,30.1,COc1cc(-c2oc3cc(O)cc(O)c3c(=O)c2O[C@@H]2O[C@H](CO)[C@@H](O)[C@H](O)[C@H]2O)ccc1O,Ki [3]: 29.7 µM
90.8,12,COc1cc(O)c2c(=O)c(OC)c(-c3ccc(O[C@@H]4O[C@H](CO)[C@@H](O)[C@H](O)[C@H]4O[C@@H]4OC[C@](O)(CO)[C@H]4O)c(OC)c3)oc2c1,Ki [6]: 18.2 µM
66.1,,COc1cc(O)c2c(=O)cc(-c3ccc(O[C@@H]4O[C@H](CO)[C@@H](O)[C@H](O)[C@H]4O[C@@H]4OC[C@](O)(CO)[C@H]4O)c(OC)c3)oc2c1,
